Each structure is given as a SMILES string.

The test system of the assay is cloned DNA polymerase I genetically engineered to eliminate 3′-5′ exonuclease activity, 5′-3′exonuclease activity and discrimination against dideoxynucleotides. Kind of assay: Nucleic acid sequence detection by polymerase incorporation of gamma-phosphate-labeled dideoxynucleotide in the presence of shrimp alkaline phosphatase (fluorescence). It is filed as biochemical. As to conditions: 23° C.; for dye emission with Primer: Template 1: next template nucleotide dC (SEQ ID NO: 2); for dye emission with Primer: Template 2: next template nucleotide dT (SEQ ID NO: 3). The protocol:
Reactions were assembled at room temperature (23° C.) using the dideoxynucleotide of Example (1). Reactions contained primer template combinations having a single oligonucleotide primer (represented by SEQ ID NO: 1) annealed to one of two different oligonucleotide templates with either a dC or a dT as the next template nucleotide adjacent the 3′ terminus of the primer, corresponding to SEQ ID NO: 2 and SEQ ID NO: 3, respectively.
Referring now to FIG. 1, for template 1 (SEQ ID NO: 2) in the present example, DNA polymerase would be expected to extend the primer with labeled ddGTP. Similarly, for template 2 (SEQ ID NO: 3) in FIG. 1, DNA polymerase would be expected to extend the primer with ddATP, but not with labeled ddGTP.
Reaction conditions: A 70 μl reaction containing 25 mM Tris, pH 8.0, 5% glycerol 5 mM MgC12, 0.5 mM beta-mercaptoethanol, 0.01% tween-20, 0.25 units shrimp alkaline phosphatase, 100 nM primer annealed to template (the next template nucleotide is either dCMP or dTMP, as indicated), and 2 μM ddGTP-CF3-Coumarin was assembled in a quartz fluorescence ultra-microcuvet in a LS-55 Luminescence Spectrometer (Perkin Elmer), operated in time drive mode. Excitation and emission wavelengths are 390 nm and 500 nm respectively. Slit widths were 5 nm for excitation slits, 15 nm for emission slits. The reaction was initiated by the addition of 0.35 μl (11 units) of a cloned DNA polymerase I genetically engineered to eliminate 3′-5′ exonuclease activity, 5′-3′exonuclease activity and discrimination against dideoxynucleotides and 0.25 mM MnCl2. […]

[1] abbreviates: 2 μM ddGTP-CF3-Coumarin, excitation 390 nm, emission 500 nm, FIG. 1.
Where [2] appears, read: 2 μM ddATP-CN-Coumarin, excitation 410 nm, emission 450 nm, FIG. 2.

On to `Nc1nc2c(ncn2[C@H]2CC[C@@H](COP(=O)(O)OP(=O)(O)OP(=O)(O)Oc3ccc4c(C(F)(F)F)cc(=O)oc4c3)O2)c(=O)[nH]1` [gamma labeled ddGTP, γ-(4-trifluoromethylcoumarinyl)ddGTP], for which, under setting [1], the “dye emission with Primer: Template 1” value is “dye emission was detected” and the “dye emission with Primer: Template 2” value was “No detectable dye emission”.

On to `N#Cc1cc2ccc(OP(=O)(O)OP(=O)(O)OP(=O)(O)OC[C@@H]3CC[C@H](n4cnc5c(N)ncnc54)O3)cc2oc1=O` [gamma labeled ddATP, γ-(3-Cyanocoumarinyl)ddATP], for which, under setting [2], the “dye emission with Primer: Template 1” value is recorded as “No detectable dye emission” and the “dye emission with Primer: Template 2” value is reported as “dye emission was detected”.

The record behind these values is patent publication US20040152119A1, “Solid phase sequencing” (priority 2003, published 2004).
